Reference: patent EP4792811A1, “S1PR4 REGULATOR COMPOUND FOR MUSCLE DISEASE TREATMENT AND APPLICATION THEREOF” (Shengyuan Zetong (Shanghai) Pharmaceutical Co., Ltd, priority 2023, dated 2025)

What was measured:
[1] = test system: Duchenne muscular dystrophy model mice; assay: In vivo pharmacodynamic test in Duchenne muscular dystrophy model mice (Compound 30); conditions: for serum creatine kinase level: after treatment
Description: Experimental Animals: A total of 35 Duchenne muscular dystrophy model mice were divided into 6 groups as shown below.
Intragastric administration was initiated from Day 0. Body weight was measured daily during the experiment to adjust the drug dosage. Grip strength tests were performed every 2 days to observe changes in the mice's grip strength until the experiment concluded on Day 21. Changes in the limb grip strength, serum creatine kinase content, and muscle fibrosis/inflammation in the mice were detected as indicators for evaluating drug efficacy.
(§1) The mouse was placed horizontally on the grip test board. The mouse's tail was held and pulled gently in the opposite direction without using excessive force. The tail was gradually pulled until the mouse released the grip force sensor. The maximum value recorded by the grip force sensor is the grip strength. The test was repeated for 3 times and the average value was taken.
(§2) After the completion of administration, blood was collected via the orbital sinus, allowed to stand for 30 minutes, centrifuged at 3000 rpm at 4°C for 15 minutes, and serum was extracted, stored frozen at -20°C, and detected in accordance with the kit instructions.
(§3) After the experiment, the tibialis anterior, extensor digitorum longus, and diaphragm of the mice were harvested, fixed, sectioned, and subjected to HE staining and Sirius Red staining to observe the degree of muscle fibrosis. The slice was subjected to immunofluorescence staining with F4/80 to observe the level of muscle inflammation.

hS1P4 = target: T1, hS1P4 (Homo sapiens, UniProt O95977); assay: Tango β-arrestin recruitment assay, Tango-hS1P4-CHO; type: cell-based; conditions: selectivity table; Tango-S1PR4-CHO-K1 cells
T1 construct: expressed in transfected cells; host or cells: CHO-K1
T1 sequence (O95977 1-384): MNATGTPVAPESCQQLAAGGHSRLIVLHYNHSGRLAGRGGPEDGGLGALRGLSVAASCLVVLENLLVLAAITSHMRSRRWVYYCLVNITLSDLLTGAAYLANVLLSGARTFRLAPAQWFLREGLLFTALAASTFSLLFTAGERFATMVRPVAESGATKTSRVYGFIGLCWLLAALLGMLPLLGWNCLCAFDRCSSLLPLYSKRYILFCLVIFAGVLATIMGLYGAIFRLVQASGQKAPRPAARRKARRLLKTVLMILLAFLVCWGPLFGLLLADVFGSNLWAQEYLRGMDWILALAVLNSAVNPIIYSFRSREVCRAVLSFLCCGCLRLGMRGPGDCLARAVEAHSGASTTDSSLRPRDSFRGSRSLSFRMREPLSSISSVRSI
Text: The Tango assay detects ligand-dependent GPCR activity through the interaction between β-arrestin and GPCRs. […] The NTEV fragment and the tetracycline transactivator (tTA), an artificial transcription factor, are fused at the C-terminus of the GPCR, while the CTEV fragment is fused to human β-arrestin 2. To enhance the stability of the interaction between GPCR and β-arrestin, a short sequence from the C-terminus of the human arginine vasopressin receptor 2 (V2 tail) is inserted between the GPCR and NTEV. The V2 tail contains multiple GRK phosphorylation sites, which strengthen β-arrestin binding upon phosphorylation. The CTEV fragment carries the stabile point mutation S219P and is truncated at residue 221 to remove the autoinhibitory C-terminal tail. Meanwhile, β-arrestin 2 is truncated to lack the entire C-terminal tail (residues 383-410 deleted). This truncation confers robust stimulus-dependent receptor desensitization, thereby improving detection sensitivity compared with wild-type β-arrestin 2. The UAS reporter construct consists of upstream activating sequence (UAS) elements, a minimal CMV promoter, and a tTA-dependent luciferase reporter gene. Therefore, constructing Tango cells requires the co-transfection of the above three plasmids into host cells. Upon GPCR activation and β-arrestin recruitment, the TEV enzyme at the β-arrestin terminus cleaves tTA from the GPCR C-terminus. The released tTA initiates tTA-dependent luciferase transcription, and compound activity is ultimately determined by measuring luminescence intensity.
• 1) Tango cell line from was digested from the culture dish respectively. After cell counting, the cells were plated at a density of 10,000 cells per well with […] into a white opaque 96-well plate (add 60 µL D'Hanks to the surrounding wells), and incubated overnight (20 h) in a 5% CO2 incubator at 37°C. The cell density will reach approximately 90% the next day. • 2) After 20 h, 30 µL of serially diluted compound solution was added to each well. The control group was supplemented with 30 µL F12K complete medium. Each group had three replicate wells. • 3) Samples were collected after 20 h of drug treatment.
(All compounds were tested at a final concentration of 45 µM, with 9 serial dilutions at 5-fold intervals. 1 µM BAF-312 was used as the positive control for S1PR1, and 25 µM BAF-312 was used as the positive control for S1PR4.)
(§4) ^a β-arrestin recruitment activity based on Tango-S1PR1-CHO-K1 and Tango-S1PR4-CHO-K1 cells, expressed as mean EC50 values ± SD. ^b FLIPR assays were performed using S1PR2-CHO and S1PR5-CHO cell lines, expressed as mean EC50 values ± SD. ^c β-arrestin recruitment activity based on PathHunter CHO-K1-S1PR3 cells, expressed as mean EC50 values ± SD. Data are the mean of at least two independent determinations, reported as mean ± SD (standard deviation).

[2] = test system: S1PR4-R82C/NDUFA10-R217W double-mutant mice; assay: In vivo efficacy in S1PR4-R82C/NDUFA10-R217W double-mutant muscular dystrophy mice; conditions: for grip strength (ratio of grip strength to body weight): after 21 days of treatment; for body weight gain trend: compared with the model group; for collagen deposition (collagen area ratio): after administration
Description: Experimental Animals: A total of 34 S1PR4-R82C/NDUFA10-R217W mice were divided into 6 groups as shown below.
Intragastric administration was initiated on Day 0, and body weight was measured daily during the experiment to adjust the drug dosage. Grip strength was measured at the beginning and end of the experiment to observe motor changes in mice. Changes in the limb grip strength, serum creatine kinase content, and muscle fibrosis/inflammation in mice were detected as indicators for evaluating drug efficacy.
as §1, §2, §3

S1PR3 = target: T2, S1PR3 (Homo sapiens, UniProt Q99500); assay: β-arrestin recruitment, PathHunter CHO-K1-S1PR3 cells; type: cell-based
T2 construct: expressed in transfected cells; host or cells: PathHunter CHO-K1
T2 sequence (Q99500 whole entry): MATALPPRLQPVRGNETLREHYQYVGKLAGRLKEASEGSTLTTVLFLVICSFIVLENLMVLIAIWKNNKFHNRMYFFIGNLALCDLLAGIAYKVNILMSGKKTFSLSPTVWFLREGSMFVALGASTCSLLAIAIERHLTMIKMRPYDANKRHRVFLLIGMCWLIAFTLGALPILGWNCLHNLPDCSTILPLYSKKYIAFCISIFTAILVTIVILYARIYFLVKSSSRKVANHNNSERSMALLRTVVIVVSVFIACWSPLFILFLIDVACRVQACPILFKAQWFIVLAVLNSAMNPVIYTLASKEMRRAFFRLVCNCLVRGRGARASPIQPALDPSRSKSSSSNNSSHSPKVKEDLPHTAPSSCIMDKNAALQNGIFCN
Description: as §4

[3] = 0.3 mg/kg intragastric once daily
[4] = 0.3 mg/kg intragastric once daily, compared with the model group
[5] = 1 mg/kg intragastric once daily
[6] = 3 mg/kg intragastric once daily
[7] = 1 mg/kg intragastric once daily, after treatment

CCc1cc(/C(C)=N/OCc2ccc(-c3ccccc3)c(C)c2)ccc1CN1CC[C@H](C(=O)O)C1 [Compound 30]
collagen deposition (collagen area ratio) [1, 3]: significantly reduced collagen deposition
serum creatine kinase level [1, 3]: significantly reduced
body weight growth trend [1, 4]: no difference
number of centrally nucleated fibers (HE staining) [1, 4]: no significant difference
collagen deposition (collagen area ratio) [1, 5]: significantly reduced collagen deposition
macrophage content (F4/80 immunofluorescence, muscle inflammation) [1, 5]: significantly reduced macrophage content
number of centrally nucleated fibers (HE staining) [1, 5]: significantly reduced
serum creatine kinase level [1, 5]: significantly reduced
body weight growth trend ([1]; 1 mg/kg intragastric once daily, compared with the model group): no difference
collagen deposition (collagen area ratio) [1, 6]: significantly reduced collagen deposition
macrophage content (F4/80 immunofluorescence, muscle inflammation) [1, 6]: significantly reduced macrophage content
number of centrally nucleated fibers (HE staining) [1, 6]: significantly reduced
serum creatine kinase level [1, 6]: significantly reduced
body weight growth trend ([1]; 3 mg/kg intragastric once daily, compared with the other groups): relatively slow
increase in grip strength (ratio of grip strength to body weight) ([1]; 3 mg/kg intragastric once daily, first 14 days): most significant
Emax (hS1P4): 104%
grip strength (ratio of grip strength to body weight) [2, 3]: significantly increased
body weight gain trend [2, 3]: no difference
grip strength (ratio of grip strength to body weight) [2, 5]: significantly increased
collagen deposition (collagen area ratio) [2, 5]: significantly reduced collagen deposition
macrophage content (F4/80 immunofluorescence, muscle inflammation) [2, 7]: greatest reduction
number of centrally nucleated fibers (HE staining) [2, 7]: greatest reduction
serum creatine kinase level [2, 7]: significantly reduced
body weight gain trend [2, 5]: no difference
collagen deposition (collagen area ratio) [2, 6]: significantly reduced collagen deposition
body weight gain trend [2, 6]: no difference
serum creatine kinase level ([2]; 4 mg/kg (so in the source) intragastric once daily, after treatment): significantly reduced
agonist activity on S1PR3 (S1PR3; compared with the endogenous ligand S1P): no agonist activity
Emax (S1PR3; selectivity table, PathHunter CHO-K1-S1PR3): 2.25%
